The test has as its target T1, Smc1/Smc3 heterodimer with Scc1-C (cohesin) (Saccharomyces cerevisiae, UniProt P32908+P47037).
T1 construct: N-terminal tags; Sf9 insect cells; fluorescently labelled for MST; with Sister chromatid cohesion protein 1
T1 sequence (P32908 1-1225): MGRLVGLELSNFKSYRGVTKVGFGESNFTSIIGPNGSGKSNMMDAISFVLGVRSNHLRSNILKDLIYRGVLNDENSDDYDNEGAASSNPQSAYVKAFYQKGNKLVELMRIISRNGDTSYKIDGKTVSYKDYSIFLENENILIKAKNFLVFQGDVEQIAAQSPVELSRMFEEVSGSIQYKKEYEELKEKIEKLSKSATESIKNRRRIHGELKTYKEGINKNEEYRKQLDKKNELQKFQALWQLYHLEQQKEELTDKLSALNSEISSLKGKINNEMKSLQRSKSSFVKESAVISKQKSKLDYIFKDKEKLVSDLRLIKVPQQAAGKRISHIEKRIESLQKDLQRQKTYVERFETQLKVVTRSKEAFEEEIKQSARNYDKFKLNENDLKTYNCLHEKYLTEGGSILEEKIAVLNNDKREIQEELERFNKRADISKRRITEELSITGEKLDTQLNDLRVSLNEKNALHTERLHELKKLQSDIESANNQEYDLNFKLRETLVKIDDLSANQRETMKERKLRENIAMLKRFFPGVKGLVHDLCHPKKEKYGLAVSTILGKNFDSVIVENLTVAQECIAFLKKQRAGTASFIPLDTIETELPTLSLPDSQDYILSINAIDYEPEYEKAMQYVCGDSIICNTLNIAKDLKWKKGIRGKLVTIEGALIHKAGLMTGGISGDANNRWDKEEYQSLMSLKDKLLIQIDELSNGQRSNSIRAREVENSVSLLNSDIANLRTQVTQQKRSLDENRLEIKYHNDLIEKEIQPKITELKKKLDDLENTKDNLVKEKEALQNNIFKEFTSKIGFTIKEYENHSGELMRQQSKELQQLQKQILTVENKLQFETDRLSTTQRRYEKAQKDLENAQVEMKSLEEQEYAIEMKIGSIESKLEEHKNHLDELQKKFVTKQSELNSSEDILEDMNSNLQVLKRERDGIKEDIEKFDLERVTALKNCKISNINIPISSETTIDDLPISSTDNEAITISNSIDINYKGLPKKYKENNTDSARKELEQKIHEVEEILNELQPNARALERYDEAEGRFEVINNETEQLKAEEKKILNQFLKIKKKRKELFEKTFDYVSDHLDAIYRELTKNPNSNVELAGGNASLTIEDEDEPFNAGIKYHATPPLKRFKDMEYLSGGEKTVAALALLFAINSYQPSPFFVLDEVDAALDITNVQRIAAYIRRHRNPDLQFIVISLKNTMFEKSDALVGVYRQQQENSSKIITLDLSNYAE
T1 sequence (P47037 1-1230): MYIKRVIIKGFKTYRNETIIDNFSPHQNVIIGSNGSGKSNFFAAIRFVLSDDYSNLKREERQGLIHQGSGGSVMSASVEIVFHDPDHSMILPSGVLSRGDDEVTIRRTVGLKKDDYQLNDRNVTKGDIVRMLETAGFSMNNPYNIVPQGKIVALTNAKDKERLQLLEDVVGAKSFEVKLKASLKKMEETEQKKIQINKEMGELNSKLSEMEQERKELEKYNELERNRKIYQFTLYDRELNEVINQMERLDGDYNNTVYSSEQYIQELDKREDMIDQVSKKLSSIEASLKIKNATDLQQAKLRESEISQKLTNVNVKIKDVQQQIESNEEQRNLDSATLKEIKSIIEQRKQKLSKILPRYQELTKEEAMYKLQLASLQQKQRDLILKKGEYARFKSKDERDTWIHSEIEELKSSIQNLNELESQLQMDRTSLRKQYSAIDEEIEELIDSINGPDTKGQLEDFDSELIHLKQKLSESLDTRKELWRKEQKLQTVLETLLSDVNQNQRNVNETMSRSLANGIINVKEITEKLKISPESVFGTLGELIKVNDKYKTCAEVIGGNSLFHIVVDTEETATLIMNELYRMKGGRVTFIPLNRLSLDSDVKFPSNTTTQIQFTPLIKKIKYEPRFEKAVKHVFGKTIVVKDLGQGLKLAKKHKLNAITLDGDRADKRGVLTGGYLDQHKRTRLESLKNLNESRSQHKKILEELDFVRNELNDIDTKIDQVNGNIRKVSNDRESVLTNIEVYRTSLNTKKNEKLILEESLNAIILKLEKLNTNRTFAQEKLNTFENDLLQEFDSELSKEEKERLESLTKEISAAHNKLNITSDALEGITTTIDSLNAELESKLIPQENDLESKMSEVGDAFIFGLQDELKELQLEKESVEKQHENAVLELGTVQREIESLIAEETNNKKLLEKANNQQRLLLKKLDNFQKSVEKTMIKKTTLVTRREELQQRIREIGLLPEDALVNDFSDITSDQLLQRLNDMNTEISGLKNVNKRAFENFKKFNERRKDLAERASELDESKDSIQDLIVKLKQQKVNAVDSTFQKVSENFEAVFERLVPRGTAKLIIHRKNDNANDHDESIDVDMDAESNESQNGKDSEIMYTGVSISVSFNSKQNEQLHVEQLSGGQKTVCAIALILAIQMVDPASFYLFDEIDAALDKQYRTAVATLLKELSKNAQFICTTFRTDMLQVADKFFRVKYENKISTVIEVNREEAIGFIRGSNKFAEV
T1 sequence (Q12158 1-566 partner): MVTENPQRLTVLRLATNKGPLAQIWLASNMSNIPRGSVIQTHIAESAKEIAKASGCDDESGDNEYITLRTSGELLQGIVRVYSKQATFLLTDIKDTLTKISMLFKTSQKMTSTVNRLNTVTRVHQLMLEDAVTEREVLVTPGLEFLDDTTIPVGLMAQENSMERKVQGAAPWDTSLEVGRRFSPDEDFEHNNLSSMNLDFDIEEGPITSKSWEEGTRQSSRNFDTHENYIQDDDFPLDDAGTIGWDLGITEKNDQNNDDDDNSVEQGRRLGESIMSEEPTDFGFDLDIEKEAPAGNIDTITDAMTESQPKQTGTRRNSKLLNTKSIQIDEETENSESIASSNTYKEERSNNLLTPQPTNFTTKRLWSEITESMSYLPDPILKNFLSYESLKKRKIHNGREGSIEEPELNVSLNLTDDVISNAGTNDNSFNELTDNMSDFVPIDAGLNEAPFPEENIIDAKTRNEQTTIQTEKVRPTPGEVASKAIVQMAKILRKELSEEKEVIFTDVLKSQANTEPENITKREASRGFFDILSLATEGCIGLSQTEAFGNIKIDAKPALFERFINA
As to the kind of experiment: microscale thermophoresis. The test is classed as binding. Conditions: fluorescently labelled protein; Smc1 co-purified with Scc1-C, plus Smc3; read-out: affinity. From the text: microscale thermophoresis on Smc1/Smc3 heterodimer with Scc1-C (cohesin) | wild-type and mutant cohesin complexes appear to have similar affinities to ADP
Background: MST reads how a fluorescent partner responds to local heating, with and without ligand.

These results are taken from publication PMC4769319, “Cohesin Releases DNA through Asymmetric ATPase-Driven Ring Opening” (Molecular Cell, 2016).

Each structure is given as a SMILES string.

In the case of `Nc1ncnc2c1ncn2[C@@H]1O[C@H](COP(=O)(O)OP(=O)(O)O)[C@@H](O)[C@H]1O` [ADP], the Kd was greater than 1000 µM.
